Test results published in ChEMBL document CHEMBL3885861, “Open TG-GATES”.

Species on record: Rattus norvegicus
Test: Open TG-GATES - Regimen: Daily Repeat
Format: toxicity, organism-based, Sprague-Dawley
Design: regimen Daily Repeat, gender Male, age 6 weeks
Details: in vivo, po, 0 mg/kg, route gavage, dose level Control; for APTT / Bas / Eos / Fbg / Hb / Ht / Lym / MCH / MCHC / MCV / Mono / Neu / PT / Plat / RBC / Ret / WBC: tissue Blood; for KIDNEY_L / KIDNEY_R / KIDNEY_TOTAL: tissue Kidney; for LIVER: tissue Liver; for A/G / ALP / ALT / AST / BUN / CRE / Ca / Cl / DBIL / GLC / IP / K / LDH / Na / PL / RALB / TBIL / TC / TG / TP / gamma-GTP: tissue Plasma

CN1C(=O)OC(C)(C)C1=O [TRIMETHADIONE]
TERMINAL_BW (72 h, time 3 day): 243.9 g
APTT (72 h, time 3 day): 17 s
Bas (72 h, time 3 day): 0%
Eos (72 h, time 3 day): 0.8%
Fbg (72 h, time 3 day): 265 mg/dL
Hb (72 h, time 3 day): 13.7 g/dL
Ht (72 h, time 3 day): 41%
Lym (72 h, time 3 day): 79.8%
MCH (72 h, time 3 day): 21.4 pg
MCHC (72 h, time 3 day): 33.4%
MCV (72 h, time 3 day): 64.2 fL
Mono (72 h, time 3 day): 2.6%
Neu (72 h, time 3 day): 16.4%
PT (72 h, time 3 day): 13.3 s
Plat (72 h, time 3 day): 131 x10_4/uL
RBC (72 h, time 3 day): 639.2 x10_4/ul
Ret (72 h, time 3 day): 7.2%
WBC (72 h, time 3 day): 85.5 x10_2/uL
KIDNEY_L (72 h, time 3 day): 1 g
KIDNEY_R (72 h, time 3 day): 1 g
KIDNEY_TOTAL (72 h, time 3 day): 2 g
LIVER (72 h, time 3 day): 11.2 g
A/G (72 h, time 3 day): 0.8
ALP (72 h, time 3 day): 1967.6 IU/L
ALT (72 h, time 3 day): 47.4 IU/L
AST (72 h, time 3 day): 78 IU/L
BUN (72 h, time 3 day): 15 mg/dL
CRE (72 h, time 3 day): 0.2 mg/dL
Ca (72 h, time 3 day): 11.2 mg/dL
Cl (72 h, time 3 day): 106 meq/L
DBIL (72 h, time 3 day): 0.006 mg/dL
GLC (72 h, time 3 day): 180.6 mg/dL
IP (72 h, time 3 day): 7 mg/dL
K (72 h, time 3 day): 4.6 meq/L
LDH (72 h, time 3 day): 109.4 IU/L
Na (72 h, time 3 day): 141.6 meq/L
PL (72 h, time 3 day): 166.6 mg/dL
RALB (72 h, time 3 day): 2.6 g/dL
TBIL (72 h, time 3 day): 0.05 mg/dL
TC (72 h, time 3 day): 83.6 mg/dL
TG (72 h, time 3 day): 141.8 mg/dL
TP (72 h, time 3 day): 5.7 g/dL
gamma-GTP (72 h, time 3 day): 1 IU/L
TERMINAL_BW ([…], time 7 day): 282.3 g
TERMINAL_BW ([…], time 14 day): 333.6 g
TERMINAL_BW ([…], time 28 day): 429.2 g
APTT ([…], time 7 day): 17.7 s
Bas ([…], time 7 day): 0.6%
Eos ([…], time 7 day): 1%
Fbg ([…], time 7 day): 263.8 mg/dL
Hb ([…], time 7 day): 13.8 g/dL
Ht ([…], time 7 day): 41%
Lym ([…], time 7 day): 79.4%
MCH ([…], time 7 day): 21.4 pg
MCHC ([…], time 7 day): 33.6%
MCV ([…], time 7 day): 63.9 fL
Mono ([…], time 7 day): 2.4%
Neu ([…], time 7 day): 16.4%
PT ([…], time 7 day): 13.9 s
Plat ([…], time 7 day): 123.3 x10_4/uL
RBC ([…], time 7 day): 641.8 x10_4/ul
Ret ([…], time 7 day): 5.8%
WBC ([…], time 7 day): 89.3 x10_2/uL
APTT ([…], time 14 day): 19.5 s
Bas ([…], time 14 day): 0.4%
Eos ([…], time 14 day): 1.2%
Fbg ([…], time 14 day): 284.6 mg/dL
Hb ([…], time 14 day): 14.9 g/dL
Ht ([…], time 14 day): 43.9%
Lym ([…], time 14 day): 77.8%
MCH ([…], time 14 day): 20.8 pg
MCHC ([…], time 14 day): 33.9%
MCV ([…], time 14 day): 61.2 fL
Mono ([…], time 14 day): 2%
Neu ([…], time 14 day): 18.6%
PT ([…], time 14 day): 13.4 s
Plat ([…], time 14 day): 127.4 x10_4/uL
RBC ([…], time 14 day): 719 x10_4/ul
Ret ([…], time 14 day): 4.4%
WBC ([…], time 14 day): 99.3 x10_2/uL
APTT ([…], time 28 day): 17.5 s
Bas ([…], time 28 day): 0%
Eos ([…], time 28 day): 1.2%
Fbg ([…], time 28 day): 265.2 mg/dL
Hb ([…], time 28 day): 15.4 g/dL
Ht ([…], time 28 day): 44.4%
Lym ([…], time 28 day): 78.4%
MCH ([…], time 28 day): 19.8 pg
MCHC ([…], time 28 day): 34.8%
MCV ([…], time 28 day): 57.1 fL
Mono ([…], time 28 day): 1.6%
Neu ([…], time 28 day): 18.2%
PT ([…], time 28 day): 13.7 s
Plat ([…], time 28 day): 109.9 x10_4/uL
RBC ([…], time 28 day): 778.2 x10_4/ul
Ret ([…], time 28 day): 2.6%
WBC ([…], time 28 day): 114 x10_2/uL
KIDNEY_L ([…], time 7 day): 1.1 g
KIDNEY_R ([…], time 7 day): 1.1 g
KIDNEY_TOTAL ([…], time 7 day): 2.3 g
KIDNEY_L ([…], time 14 day): 1.2 g
KIDNEY_R ([…], time 14 day): 1.2 g
KIDNEY_TOTAL ([…], time 14 day): 2.4 g
KIDNEY_L ([…], time 28 day): 1.5 g
KIDNEY_R ([…], time 28 day): 1.5 g
KIDNEY_TOTAL ([…], time 28 day): 2.9 g
LIVER ([…], time 7 day): 12.5 g
LIVER ([…], time 14 day): 14.3 g
LIVER ([…], time 28 day): 16.8 g
A/G ([…], time 7 day): 0.8
ALP ([…], time 7 day): 1722.8 IU/L
ALT ([…], time 7 day): 38.2 IU/L
AST ([…], time 7 day): 67.4 IU/L
BUN ([…], time 7 day): 16.8 mg/dL
CRE ([…], time 7 day): 0.2 mg/dL
Ca ([…], time 7 day): 11 mg/dL
Cl ([…], time 7 day): 105.2 meq/L
DBIL ([…], time 7 day): 0.01 mg/dL
GLC ([…], time 7 day): 191.8 mg/dL
IP ([…], time 7 day): 6.9 mg/dL
K ([…], time 7 day): 4.1 meq/L
LDH ([…], time 7 day): 107.8 IU/L
Na ([…], time 7 day): 144 meq/L
PL ([…], time 7 day): 165.4 mg/dL
RALB ([…], time 7 day): 2.6 g/dL
TBIL ([…], time 7 day): 0.052 mg/dL
TC ([…], time 7 day): 85.6 mg/dL
TG ([…], time 7 day): 109 mg/dL
TP ([…], time 7 day): 5.8 g/dL
gamma-GTP ([…], time 7 day): 1 IU/L
A/G ([…], time 14 day): 0.8
ALP ([…], time 14 day): 1703.8 IU/L
ALT ([…], time 14 day): 42 IU/L
AST ([…], time 14 day): 73.8 IU/L
BUN ([…], time 14 day): 17.2 mg/dL
CRE ([…], time 14 day): 0.2 mg/dL
Ca ([…], time 14 day): 10.8 mg/dL
Cl ([…], time 14 day): 107.2 meq/L
DBIL ([…], time 14 day): 0.004 mg/dL
GLC ([…], time 14 day): 208.2 mg/dL
IP ([…], time 14 day): 6.8 mg/dL
K ([…], time 14 day): 3.9 meq/L
LDH ([…], time 14 day): 98.8 IU/L
Na ([…], time 14 day): 145.6 meq/L
PL ([…], time 14 day): 164.6 mg/dL
RALB ([…], time 14 day): 2.7 g/dL
TBIL ([…], time 14 day): 0.042 mg/dL
TC ([…], time 14 day): 80.8 mg/dL
TG ([…], time 14 day): 128.8 mg/dL
TP ([…], time 14 day): 6 g/dL
gamma-GTP ([…], time 14 day): 1 IU/L
A/G ([…], time 28 day): 0.8
ALP ([…], time 28 day): 1156.4 IU/L
ALT ([…], time 28 day): 35 IU/L
AST ([…], time 28 day): 62.6 IU/L
BUN ([…], time 28 day): 15 mg/dL
CRE ([…], time 28 day): 0.2 mg/dL
Ca ([…], time 28 day): 10.8 mg/dL
Cl ([…], time 28 day): 105.6 meq/L
DBIL ([…], time 28 day): 0.004 mg/dL
GLC ([…], time 28 day): 183.8 mg/dL
IP ([…], time 28 day): 6 mg/dL
K ([…], time 28 day): 4 meq/L
LDH ([…], time 28 day): 64.2 IU/L
Na ([…], time 28 day): 142.6 meq/L
PL ([…], time 28 day): 159.8 mg/dL
RALB ([…], time 28 day): 2.8 g/dL
TBIL ([…], time 28 day): 0.048 mg/dL
TC ([…], time 28 day): 73.6 mg/dL
TG ([…], time 28 day): 188.4 mg/dL
TP ([…], time 28 day): 6.3 g/dL
gamma-GTP ([…], time 28 day): 1 IU/L
